Active and inactive are the calls of the source. The calls are words filed in the database; no cut-off is given here.
target: T1, Estrogen receptor (Homo sapiens) (UniProt P03372); assay: Displacement of [3H]estradiol from ERalpha isolated from BL21 cells relative to estradiol at 25 degC; assay type: cell-free
T1 sequence (whole entry): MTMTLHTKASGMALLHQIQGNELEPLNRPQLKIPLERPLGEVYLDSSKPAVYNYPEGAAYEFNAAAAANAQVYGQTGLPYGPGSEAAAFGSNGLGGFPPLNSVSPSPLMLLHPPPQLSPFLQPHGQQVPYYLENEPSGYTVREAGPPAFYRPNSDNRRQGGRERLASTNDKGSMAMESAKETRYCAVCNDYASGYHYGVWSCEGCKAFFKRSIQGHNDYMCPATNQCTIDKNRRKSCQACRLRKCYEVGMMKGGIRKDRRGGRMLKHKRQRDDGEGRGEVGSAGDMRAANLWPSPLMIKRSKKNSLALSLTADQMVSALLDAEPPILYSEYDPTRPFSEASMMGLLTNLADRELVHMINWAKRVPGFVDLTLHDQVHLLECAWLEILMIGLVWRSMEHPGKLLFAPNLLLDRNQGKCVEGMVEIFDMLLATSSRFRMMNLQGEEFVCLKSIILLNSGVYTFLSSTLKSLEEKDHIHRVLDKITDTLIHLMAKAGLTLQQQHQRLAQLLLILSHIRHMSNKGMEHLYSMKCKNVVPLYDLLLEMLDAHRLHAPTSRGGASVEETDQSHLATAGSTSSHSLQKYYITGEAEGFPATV

Structure (SMILES)	RBA
CO[C@H]1C[C@@]2(C)[C@@H](CC[C@@]2(O)/C=C/c2ccccc2C(F)(F)F)[C@@H]2CCc3cc(O)ccc3[C@H]21	212
CO[C@H]1C[C@@]2(C)[C@@H](CC[C@@]2(O)/C=C/c2ccccc2)[C@@H]2CCc3cc(O)ccc3[C@H]21	15
C[C@]12CC[C@@H]3c4ccc(O)cc4CC[C@H]3[C@@H]1CC[C@@]2(O)/C=C/c1ccccc1	18
CO[C@H]1C[C@@]2(C)[C@@H](CC[C@@]2(O)/C=C/c2ccc(C(F)(F)F)cc2)[C@@H]2CCc3cc(O)ccc3[C@H]21	5

The remaining lines, values ahead:

RBA	Structure (SMILES)
65	CO[C@H]1C[C@@]2(C)[C@@H](CC[C@@]2(O)/C=C/c2cccc(C(F)(F)F)c2)[C@@H]2CCc3cc(O)ccc3[C@H]21
8	C[C@]12CC[C@@H]3c4ccc(O)cc4CC[C@H]3[C@@H]1CC[C@@]2(O)/C=C/c1ccc(C(F)(F)F)cc1
223	C[C@]12CC[C@@H]3c4ccc(O)cc4CC[C@H]3[C@@H]1CC[C@@]2(O)/C=C/c1ccccc1C(F)(F)F
75	C[C@]12CC[C@@H]3c4ccc(O)cc4CC[C@H]3[C@@H]1CC[C@@]2(O)/C=C/c1cccc(C(F)(F)F)c1

species on record: Rattus norvegicus; assay: Estrogenic efficacy in rat by immature rat uterotrophic growth assay; assay type: functional, organism-based

Structure (SMILES)	Activity
C[C@]12CC[C@@H]3c4ccc(O)cc4CC[C@H]3[C@@H]1CC[C@@]2(O)/C=C/c1ccccc1	inactive
